Our source for the IC50 and Ki values is ChEMBL document CHEMBL1909046, “DrugMatrix in vitro pharmacology data”.

For orientation: IC50 means the point on the concentration scale where inhibition reaches its midpoint. Usually Ki stands for a dissociation constant, usually derived from enzyme kinetics or from competition with a known ligand.

Experiment [1] in a line: DRUGMATRIX: ATPase, Na+/K+ enzyme inhibition (substrate: ATP). Format: tissue-based, Sus scrofa, Heart. Particulars: Not Active = under 50% inhibition at 10 µM.
Experiment [2] concerns the target T1, Alpha-2C adrenergic receptor (Homo sapiens, UniProt P18825).
T1 sequence (P18825 whole entry): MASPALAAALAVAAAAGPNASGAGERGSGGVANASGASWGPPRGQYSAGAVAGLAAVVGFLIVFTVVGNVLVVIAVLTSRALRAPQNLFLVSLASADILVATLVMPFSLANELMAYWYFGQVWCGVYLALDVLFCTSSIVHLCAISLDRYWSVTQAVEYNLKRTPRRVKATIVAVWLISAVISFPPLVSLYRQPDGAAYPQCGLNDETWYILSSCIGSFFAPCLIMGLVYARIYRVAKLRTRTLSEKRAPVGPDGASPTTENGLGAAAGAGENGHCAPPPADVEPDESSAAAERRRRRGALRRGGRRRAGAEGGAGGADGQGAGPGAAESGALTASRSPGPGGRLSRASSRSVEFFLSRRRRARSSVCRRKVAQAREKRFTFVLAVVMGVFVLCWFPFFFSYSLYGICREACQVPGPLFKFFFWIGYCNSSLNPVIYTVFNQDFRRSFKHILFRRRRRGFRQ
Kind of experiment: DRUGMATRIX: Adrenergic Alpha-2C radioligand binding (ligand: [3H] MK-912). In kind it is cell membranes, Sf9, Membrane. Particulars: for Ki: read-out: Ki.

Experiment [3] is described as follows: DRUGMATRIX: Phorbol Ester radioligand binding (ligand: [3H] PDBu). Format: cell membranes, Mus musculus, ICR, Brain, Membrane. The settings on record: Not Active = under 50% inhibition at 10 µM.
The nature of experiment [4]: DRUGMATRIX: Purinergic P2X radioligand binding (ligand: [3H] alpha, beta-Methylene-ATP). In kind it is cell membranes, Oryctolagus cuniculus, New Zealand albino, Urinary bladder, Membrane. The settings on record: Not Active = under 50% inhibition at 10 µM.
Experiment [5] addresses T2, Muscarinic acetylcholine receptor M4 (Homo sapiens, UniProt P08173).
T2 sequence (P08173 whole entry): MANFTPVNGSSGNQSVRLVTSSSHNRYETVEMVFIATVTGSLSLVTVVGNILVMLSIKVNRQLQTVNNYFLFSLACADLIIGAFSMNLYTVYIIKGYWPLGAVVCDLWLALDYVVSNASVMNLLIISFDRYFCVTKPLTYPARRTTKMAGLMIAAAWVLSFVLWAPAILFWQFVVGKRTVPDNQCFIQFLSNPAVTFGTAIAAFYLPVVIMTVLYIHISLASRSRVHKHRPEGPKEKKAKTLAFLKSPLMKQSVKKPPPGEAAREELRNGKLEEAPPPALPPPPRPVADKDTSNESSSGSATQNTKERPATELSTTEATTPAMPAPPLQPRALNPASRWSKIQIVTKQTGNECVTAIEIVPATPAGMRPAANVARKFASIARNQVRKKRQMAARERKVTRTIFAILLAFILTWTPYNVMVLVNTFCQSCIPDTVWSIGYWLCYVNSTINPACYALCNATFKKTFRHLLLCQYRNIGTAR
Format: cell membranes, CHO-K1, Membrane.

The target in experiment [6] is T3, Substance-K receptor (Homo sapiens, UniProt P21452). Further: in other assays of this panel Not Active means under 50% inhibition at 10 µM.
T3 sequence (P21452 whole entry): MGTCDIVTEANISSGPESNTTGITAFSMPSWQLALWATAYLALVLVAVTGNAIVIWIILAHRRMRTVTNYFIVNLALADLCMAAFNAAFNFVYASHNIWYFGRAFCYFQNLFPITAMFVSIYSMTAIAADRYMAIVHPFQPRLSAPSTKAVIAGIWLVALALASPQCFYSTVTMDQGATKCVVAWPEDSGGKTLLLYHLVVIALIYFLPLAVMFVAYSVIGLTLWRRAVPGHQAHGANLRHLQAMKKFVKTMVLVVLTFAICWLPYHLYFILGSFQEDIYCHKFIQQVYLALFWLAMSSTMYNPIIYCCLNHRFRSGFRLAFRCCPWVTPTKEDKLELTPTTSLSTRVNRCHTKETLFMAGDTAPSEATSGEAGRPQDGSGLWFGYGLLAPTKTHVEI
Format: cell membranes, CHO, Membrane.

The target of experiment [7] is Vascular endothelial growth factor receptor 1 (Homo sapiens, UniProt P17948). Format: cell-based. Particulars: huvec. Further: in other assays of this panel Not Active means under 50% inhibition at 10 µM.
Sequence of Vascular endothelial growth factor receptor 1 (P17948 whole entry): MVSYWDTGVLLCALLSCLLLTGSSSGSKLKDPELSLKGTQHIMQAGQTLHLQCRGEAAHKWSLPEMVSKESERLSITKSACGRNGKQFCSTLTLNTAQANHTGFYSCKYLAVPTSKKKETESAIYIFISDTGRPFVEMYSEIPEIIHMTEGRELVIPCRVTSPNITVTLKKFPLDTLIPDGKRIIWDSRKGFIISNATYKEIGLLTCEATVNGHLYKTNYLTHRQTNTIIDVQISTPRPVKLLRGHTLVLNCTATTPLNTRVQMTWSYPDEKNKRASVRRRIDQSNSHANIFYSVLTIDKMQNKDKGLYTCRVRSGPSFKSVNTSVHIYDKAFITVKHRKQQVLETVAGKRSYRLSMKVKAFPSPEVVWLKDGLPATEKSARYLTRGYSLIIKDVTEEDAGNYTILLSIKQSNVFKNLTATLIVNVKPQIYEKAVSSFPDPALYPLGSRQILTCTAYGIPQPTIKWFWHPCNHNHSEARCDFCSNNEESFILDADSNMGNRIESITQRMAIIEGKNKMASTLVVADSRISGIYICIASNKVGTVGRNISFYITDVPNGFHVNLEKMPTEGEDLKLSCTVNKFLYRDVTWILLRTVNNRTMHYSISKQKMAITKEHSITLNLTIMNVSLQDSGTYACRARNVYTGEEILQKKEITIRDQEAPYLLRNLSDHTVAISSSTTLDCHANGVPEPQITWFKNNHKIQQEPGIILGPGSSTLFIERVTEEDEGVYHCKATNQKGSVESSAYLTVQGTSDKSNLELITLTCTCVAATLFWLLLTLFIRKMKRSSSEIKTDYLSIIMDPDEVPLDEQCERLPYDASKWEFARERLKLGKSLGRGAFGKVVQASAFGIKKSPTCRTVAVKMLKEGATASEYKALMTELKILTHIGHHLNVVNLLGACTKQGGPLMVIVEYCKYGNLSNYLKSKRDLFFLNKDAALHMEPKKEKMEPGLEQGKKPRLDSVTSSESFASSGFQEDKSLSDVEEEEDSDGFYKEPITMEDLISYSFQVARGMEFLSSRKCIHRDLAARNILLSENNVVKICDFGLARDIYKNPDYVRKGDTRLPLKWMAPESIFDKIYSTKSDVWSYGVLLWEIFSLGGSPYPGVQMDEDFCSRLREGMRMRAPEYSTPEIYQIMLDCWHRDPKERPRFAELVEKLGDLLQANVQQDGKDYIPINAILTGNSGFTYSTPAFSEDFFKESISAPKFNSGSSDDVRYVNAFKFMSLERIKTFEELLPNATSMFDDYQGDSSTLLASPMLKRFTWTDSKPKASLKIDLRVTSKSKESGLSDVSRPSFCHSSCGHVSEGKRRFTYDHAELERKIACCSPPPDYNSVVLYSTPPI

On to `CCN1CCN(C(=O)N[C@@H](C(=O)N[C@@H]2C(=O)N3[C@@H]2SC(C)(C)[C@@H]3C(=O)O)c2ccccc2)C(=O)C1=O` [PIPERACILLIN], for which the IC50 result in experiment [1], in experiment [2] (sf9), in experiment [3], in experiment [4], in experiment [5] (cho-k1) and in experiment [6] (cho) was “Not Active” in each case. Also, the half-inhibitory concentration (IC50) result in experiment [7] is listed as “Not Active”. For the same molecule, the inhibition constant (Ki) entry in experiment [1], in experiment [3] and in experiment [4] was “Not Active” in each case.

Consider `NC(=O)NC(=O)Cc1ccccc1` [PHENACEMIDE], for which the concentration for half-maximal inhibition (IC50) result in experiment [1], in experiment [2] (sf9), in experiment [3], in experiment [4], in experiment [5] (cho-k1) and in experiment [6] (cho) was “Not Active” each time. Besides, in experiment [7], the IC50 result is “Not Active”. Besides, the inhibitory constant (Ki) result in experiment [1], in experiment [3] and in experiment [4] was “Not Active” each time.

For `CC(CN1c2ccccc2Sc2ccccc21)N(C)C` (centres undefined) [PROMETHAZINE], the IC50 entry is “Not Active” in experiment [1]; 2430 nM in experiment [2] (read-out: IC50); “Not Active” in experiment [3]; “Not Active” in experiment [4]; 7.58 nM in experiment [5] (read-out: IC50); “Not Active” in experiment [6] (cho). In experiment [7], the concentration for half-maximal inhibition (IC50) entry is on record as “Not Active”. Also, the Ki result in experiment [1] was “Not Active”; in experiment [2], 353 nM; in experiment [3], “Not Active”; in experiment [4] it was “Not Active”; in experiment [5] (read-out: Ki), 1.06 nM.

For `Nc1ccc(Cc2ccc(N)cc2)cc1`, the IC50 result in experiment [1], in experiment [2] (sf9), in experiment [3], in experiment [4], in experiment [5] (cho-k1) and in experiment [6] (cho) was “Not Active” each time. Also, in experiment [7], the 50% inhibitory concentration (IC50) entry is listed as “Not Active”. In addition, the Ki entry in experiment [1], in experiment [3] and in experiment [4] was “Not Active” throughout.

For `CC[C@H]1OC(=O)[C@H](C)[C@@H](O[C@H]2C[C@@](C)(OC)[C@@H](O)[C@H](C)O2)[C@H](C)[C@@H](O[C@@H]2O[C@H](C)C[C@H](N(C)C)[C@H]2O)[C@](C)(O)C[C@@H](C)C(=O)[C@H](C)[C@@H](O)[C@]1(C)O` [ERYTHROMYCIN], the IC50 result in experiment [1], in experiment [2] (sf9), in experiment [3], in experiment [4], in experiment [5] (cho-k1) and in experiment [6] (cho) was “Not Active” throughout. Also, the half-inhibitory concentration (IC50) result in experiment [7] is listed as “Not Active”. Moreover, the Ki result in experiment [1], in experiment [3] and in experiment [4] was “Not Active” in each case.

Consider `C[N+](C)(C)CCOP(=O)([O-])OC[C@H](O)CO`, for which the IC50 entry in experiment [1], in experiment [2] (sf9), in experiment [3], in experiment [4], in experiment [5] (cho-k1) and in experiment [6] (cho) was “Not Active” throughout. Besides, the half-maximal inhibitory concentration (IC50) result in experiment [7] was “Not Active”. In addition, the Ki result in experiment [1], in experiment [3] and in experiment [4] was “Not Active” each time.

Take `Clc1cc(Cl)c(OCC#CI)cc1Cl` [HALOPROGIN]: the concentration for half-maximal inhibition (IC50) result in experiment [1] was “Not Active”; in experiment [2] (read-out: IC50), 4040 nM; in experiment [3] it was “Not Active”; in experiment [4] it was “Not Active”; in experiment [5] (cho-k1) it was “Not Active”; in experiment [6] (read-out: IC50), 1470 nM. The IC50 entry in experiment [7] is “Not Active”. Also, the inhibition constant (Ki) result in experiment [1] was “Not Active”; in experiment [2] it was 588 nM; in experiment [3] it was “Not Active”; in experiment [4], “Not Active”; in experiment [6] (read-out: Ki) it was 491 nM.

Turning to `C[N+](C)(C)CCOC(N)=O.[Cl-]` [CARBACHOL], the concentration for half-maximal inhibition (IC50) result in experiment [1], in experiment [2] (sf9), in experiment [3], in experiment [4], in experiment [5] (cho-k1) and in experiment [6] (cho) was “Not Active” in each case. Also, the IC50 result in experiment [7] was “Not Active”. Moreover, the Ki result in experiment [1], in experiment [3] and in experiment [4] was “Not Active” throughout.
